Experimental data reported in patent publication US20260242395A1, “AMINOHETEROARYL KINASE INHIBITORS” (ALLORION THERAPEUTICS INC, priority 2022, published 2026).

Key:
Assay type in all cases: biochemical
CDK4/CyclinD1 = target: T1, CDK4/CyclinD1 (Homo sapiens, UniProt P11802); experiment: CDK4/CyclinD1 kinase inhibitory activity (Caliper mobility shift); details: enzyme 20 nM, ATP 672 uM, 28° C. 30 min; read-out: CDK4/Cyclin D1 IC50
T1 construct: purchased ProQinase 0142-0143-1
How it was run: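 Recombinant CDK4/Cyclin D1 (20 nM final) preincubated 10 min at room temperature with compound in HEPES pH 7.5 buffer with MgCl2, DTT and Triton X-100. Reaction started with 3000 nM FAM-labelled peptide and 672 uM ATP, run 30 min at 28° C, stopped with EDTA. Mobility-shift % conversion gave % inhibition, and IC50 came from dose-response fits.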

CDK7/CyclinH/MAT1 = target: T2, CDK7/CyclinH/MAT1 (Homo sapiens, UniProt P50613); experiment: CDK7/CyclinH/MAT1 kinase inhibitory activity (Caliper mobility shift); details: enzyme 12.5 nM, ATP 70 μM, 28° C. 30 min; read-out: CDK7/Cyclin H/MAT1 IC50
T2 construct: purchased Millipore 14-476M
Method: CDK7/CyclinH/MAT1 kinase inhibitory activity (IC50): 5 μl of various dilutions of test compound in 1× kinase buffer (20 mM HEPES, pH 7.5, 10 mM MgCl2, 2 mM DTT and 0.01% Triton X-100) was mixed with 10 μL of CDK7/CyclinH/MAT1 (Millipore, 14-476M #, final concentration 12.5 nM in 1× Kinase buffer) in 384 plates and incubated at room temperature for 10 min. To initiate each reaction, 10 μL of peptide solution containing fluorescently-labeled-peptide CTD3 (5-FAM-[…], GL, SY346885 #, final concentration 3000 nM) and ATP (final concentration 70 μM) in 1× Kinase buffer was added to each of the wells containing test compound and CDK7/CyclinH/MAT1 mixture. The reaction is then allowed to proceed at 28° C. for 30 min and terminated by the addition of 25 μL stop buffer (100 mM HEPES pH 7.5, 50 mM EDTA, 0.2% Coating Reagent #3 (Perkin Elmer, 760050 #) and 0.015% Brij-35).
(§1) Following the kinase reaction, Caliper EZ reader II (Downstream voltages: −500V, Upstream voltages: −2250V, Base pressure −0.5 PSI, Screen pressure −1.2 PSI) was used to separate the phosphoiylated (product) and the unphosphorylated (substrate) fluorescently-labeled peptide CTD3 based on their different mobility. Both substrate and product were measured and the ratio of these values were used to generate % conversion by Caliper EZ reader II. These conversion values were then transformed into % inhibition of kinase activity using the formula: % Inhibition=[(MA−X)/(MA−MI)]×100% where MA=conversion value of DMSO only controls, MI=conversion value of no enzyme controls and X=conversion value at any given compound dose. IC50 values were then calculated by plotting dose-response curves and then using the XLfit application in Excel software.

CDK2/CyclinE1 = target: T3, CDK2/CyclinE1 (Homo sapiens, UniProt P24941); experiment: CDK2/CyclinE1 kinase inhibitory activity (Caliper mobility shift); details: enzyme 3 nM, ATP 77 μM, 28° C. 30 min; read-out: CDK2/Cyclin E1 IC50
T3 construct: purchased Carna 04-165
Method: CDK2/CyclinE1 kinase inhibitory activity (IC50): 5 μl of various dilutions of test compounds in 1×kinase buffer (50 mM HEPES pH 7.5, 10 mM MgCl2, 2 mM DTT and […] Brij-35) were mixed with 10 μL of CDK2/CyclinE1 (Carna, 04-165 #, final concentration 3 nM in 1×Kinase buffer) in 384 plates and incubated at room temperature for 10 min. To initiate each reaction, 10 μL of peptide solution containing fluorescently-labeled-peptide 18(5-FAM-QSPKKG-CONH2) (GL, 114202 #, final concentration 3000 nM) and ATP (final concentration 77 μM) in 1×Kinase buffer was added to each of the wells containing test compound and CDK2/CyclinE1 mixture. The reaction was then allowed to proceed at 28° C. for 30 min and terminated by the addition of 25 μL stop buffer (100 mM HEPES pH 7.5, 50 mM EDTA, 0.2% Coating Reagent #3 (Perkin Elmer, 760050 #) and 0.015% Brij-35).
as §1, with “phosphorylated” for “phosphoiylated”, “18” for “CTD3”

T1 sequence (P11802 whole entry): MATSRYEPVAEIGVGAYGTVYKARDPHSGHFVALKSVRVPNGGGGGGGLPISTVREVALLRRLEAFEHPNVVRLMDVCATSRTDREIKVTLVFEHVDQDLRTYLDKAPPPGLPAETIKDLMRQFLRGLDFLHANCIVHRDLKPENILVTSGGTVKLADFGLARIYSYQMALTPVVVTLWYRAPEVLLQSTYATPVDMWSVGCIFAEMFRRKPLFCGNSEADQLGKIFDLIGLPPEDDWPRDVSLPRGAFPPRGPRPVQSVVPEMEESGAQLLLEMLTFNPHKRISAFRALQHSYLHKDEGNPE
T1 sequence (P24385 whole entry partner): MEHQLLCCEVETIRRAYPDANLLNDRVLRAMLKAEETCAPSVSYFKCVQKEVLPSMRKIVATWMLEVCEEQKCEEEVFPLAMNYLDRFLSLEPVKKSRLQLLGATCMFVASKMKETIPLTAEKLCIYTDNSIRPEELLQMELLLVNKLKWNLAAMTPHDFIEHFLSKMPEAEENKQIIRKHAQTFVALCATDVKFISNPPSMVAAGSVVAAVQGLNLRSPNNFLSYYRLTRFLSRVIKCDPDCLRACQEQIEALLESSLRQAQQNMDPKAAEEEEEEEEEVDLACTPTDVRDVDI
T2 sequence (P50613 whole entry): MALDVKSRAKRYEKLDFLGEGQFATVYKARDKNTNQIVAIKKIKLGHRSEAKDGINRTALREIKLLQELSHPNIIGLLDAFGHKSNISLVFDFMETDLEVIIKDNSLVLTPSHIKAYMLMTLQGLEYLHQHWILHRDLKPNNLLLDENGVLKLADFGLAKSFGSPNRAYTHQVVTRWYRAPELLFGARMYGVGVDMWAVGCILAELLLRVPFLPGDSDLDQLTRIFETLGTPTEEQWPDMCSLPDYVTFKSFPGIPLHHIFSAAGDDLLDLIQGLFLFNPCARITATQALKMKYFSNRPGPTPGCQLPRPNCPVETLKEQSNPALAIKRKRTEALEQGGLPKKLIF
T2 sequence (P51946 whole entry partner): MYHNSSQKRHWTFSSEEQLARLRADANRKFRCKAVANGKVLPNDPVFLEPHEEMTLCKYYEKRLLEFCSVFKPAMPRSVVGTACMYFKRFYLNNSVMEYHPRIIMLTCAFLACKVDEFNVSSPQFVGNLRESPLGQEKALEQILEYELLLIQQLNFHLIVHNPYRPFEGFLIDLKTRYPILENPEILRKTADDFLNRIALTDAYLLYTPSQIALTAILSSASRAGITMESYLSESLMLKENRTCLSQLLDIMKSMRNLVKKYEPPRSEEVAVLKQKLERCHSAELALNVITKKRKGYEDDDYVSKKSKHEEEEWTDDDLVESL
T2 sequence (P51948 whole entry partner): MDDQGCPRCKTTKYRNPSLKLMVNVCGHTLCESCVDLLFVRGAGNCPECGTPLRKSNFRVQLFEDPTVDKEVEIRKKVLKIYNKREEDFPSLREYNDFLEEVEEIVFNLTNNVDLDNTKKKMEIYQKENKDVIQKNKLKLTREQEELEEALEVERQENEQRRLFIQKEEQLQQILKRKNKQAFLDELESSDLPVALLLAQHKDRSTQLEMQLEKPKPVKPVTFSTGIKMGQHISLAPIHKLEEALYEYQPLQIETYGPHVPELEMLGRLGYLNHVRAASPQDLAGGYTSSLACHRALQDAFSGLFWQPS

IC50 (CDK4/CyclinD1)	IC50 (CDK7/CyclinH/MAT1)	IC50 (CDK2/CyclinE1)	SMILES
< 0.01 µM	0.1 to 1 µM	0.1 to 1 µM	O[C@@H]1COCC[C@H]1Nc1ncc(Cl)c(-c2cc(F)c3ncc4c(c3c2)C2CCC(C4)N2)n1 (single isomer, unassigned) [Example 20b]
< 0.01 µM	0.1 to 1 µM	0.01 to 0.1 µM	CC1Cc2cnc3c(F)cc(-c4nc(N[C@@H]5CCOC[C@H]5O)ncc4Cl)cc3c2CN1 (single isomer, unassigned) [Example 34a]
< 0.01 µM	≥ 1 µM	0.1 to 1 µM	CC1Cc2cnc3c(F)cc(-c4nc(N[C@@H]5CCOC[C@H]5O)ncc4Cl)cc3c2CN1 (single isomer, unassigned) [Example 34b]
< 0.01 µM	≥ 1 µM	0.1 to 1 µM	Cc1nc2c(F)cc(-c3nc(N[C@@H]4CCOC[C@H]4O)ncc3Cl)cc2c(Cl)c1C(C)O (single isomer, unassigned) [Example 35a]
< 0.01 µM	0.1 to 1 µM	0.1 to 1 µM	CC(O)c1cnc2c(F)cc(-c3nc(N[C@@H]4CCOC[C@H]4O)ncc3Cl)cc2c1Cl (single isomer, unassigned) [Example 40a]
< 0.01 µM	≥ 1 µM	0.1 to 1 µM	Cc1nc2c(F)cc(-c3nc(N[C@@H]4CCOC[C@H]4O)ncc3Cl)cc2cc1C1CCCN1 (single isomer, unassigned) [Example 57a]
< 0.01 µM	≥ 1 µM	0.1 to 1 µM	Cc1nc2c(F)cc(-c3nc(N[C@@H]4CCOC[C@H]4O)ncc3Cl)cc2cc1C(C)NC1CC1 (single isomer, unassigned) [Example 73b]
< 0.01 µM	0.1 to 1 µM	0.1 to 1 µM	Cc1nc2c(F)cc(-c3nc(N[C@@H]4CCOC[C@H]4O)ncc3F)cc2c(C)c1C(C)O (single isomer, unassigned) [Example 81a]
< 0.01 µM	0.1 to 1 µM	0.1 to 1 µM	Cc1c(C(C)O)cnc2c(F)cc(-c3nc(N[C@@H]4CCOC[C@H]4O)ncc3Cl)cc12 (single isomer, unassigned) [Example 88a]
< 0.01 µM	≥ 1 µM	≥ 1 µM	CC(C)(O)c1cnc2c(F)cc(-c3nc(N[C@@H]4CCOC[C@H]4O)ncc3Cl)cc2c1 [Example 1, (3S,4R)-4-((5-chloro-4-(8-fluoro-3-(2-hydroxypropan-2-yl)quinolin-6-yl)pyrimidin-2-yl)amino)tetrahydro-2H-pyran-3-ol]
< 0.01 µM	0.1 to 1 µM	0.1 to 1 µM	O[C@@H]1COCC[C@H]1Nc1ncc(Cl)c(-c2cc(F)c3ncc4c(c3c2)CNCC4)n1 [Example 9, (3S,4R)-4-((5-chloro-4-(7-fluoro-1,2,3,4-tetrahydrobenzo[c][2,6]naphthyridin-9-yl)pyrimidin-2-yl)amino)tetrahydro-2H-pyran-3-ol]

Second part, the compound before the results:

SMILES	IC50 (CDK4/CyclinD1)	IC50 (CDK7/CyclinH/MAT1)	IC50 (CDK2/CyclinE1)
Cc1nc2c(F)cc(-c3nc(N[C@@H]4CCOC[C@H]4O)ncc3Cl)cc2c(C)c1[C@@H](C)O (single isomer, unassigned) [Example 15a]	< 0.01 µM	≥ 1 µM	0.1 to 1 µM
Cc1nc2c(F)cc(-c3nc(N[C@@H]4CCOC[C@H]4O)ncc3Cl)cc2c(C)c1[C@H](C)O (single isomer, unassigned) [Example 15b]	< 0.01 µM	0.1 to 1 µM	0.1 to 1 µM
CNC(C)c1cnc2c(F)cc(-c3nc(N[C@@H]4CCOC[C@H]4O)ncc3Cl)cc2c1 (single isomer, unassigned) [Example 32a]	< 0.01 µM	≥ 1 µM	0.01 to 0.1 µM
Cc1nc2c(F)cc(-c3nc(N[C@@H]4CCOC[C@H]4O)ncc3Cl)cc2c(Cl)c1C(C)O (single isomer, unassigned) [Example 35b]	< 0.01 µM	≥ 1 µM	0.1 to 1 µM
CNC(C)c1cc2cc(-c3nc(N[C@@H]4CCOC[C@H]4O)ncc3Cl)cc(F)c2nc1C (single isomer, unassigned) [Example 45a]	< 0.01 µM	≥ 1 µM	0.1 to 1 µM
CNC(C)c1cc2cc(-c3nc(N[C@@H]4CCOC[C@H]4O)ncc3Cl)cc(F)c2nc1C (single isomer, unassigned) [Example 45b]	< 0.01 µM	≥ 1 µM	≥ 1 µM
Cc1nc2c(F)cc(-c3nc(N[C@@H]4CCOC[C@H]4O)ncc3F)cc2c(C)c1C(C)O (single isomer, unassigned) [Example 81b]	< 0.01 µM	0.1 to 1 µM	0.1 to 1 µM
Cc1c(C(C)NC2CC2)cnc2c(F)cc(-c3nc(N[C@@H]4CCOC[C@H]4O)ncc3Cl)cc12 (single isomer, unassigned) [Example 91b]	< 0.01 µM	≥ 1 µM	0.1 to 1 µM
CC1(C)NCc2c(cnc3c(F)cc(-c4nc(N[C@@H]5CCOC[C@H]5O)ncc4F)cc23)C1O (single isomer, unassigned) [Example 106b]	< 0.01 µM	0.1 to 1 µM	0.1 to 1 µM
Cc1nc2c(F)cc(-c3nc(N[C@@H]4CCOC[C@H]4O)ncc3Cl)cc2cc1C(C)(C)O [Example 5, (3S,4R)-4-((5-chloro-4-(8-fluoro-3-(2-hydroxypropan-2-yl)-2-methylquinolin-6-yl)pyrimidin-2-yl)amino)tetrahydro-2H-pyran-3-ol]	< 0.01 µM	≥ 1 µM	0.1 to 1 µM
Cc1c(C(C)(C)O)cnc2c(F)cc(-c3nc(N[C@@H]4CCOC[C@H]4O)ncc3Cl)cc12 [Example 7, (3S,4R)-4-((5-chloro-4-(8-fluoro-3-(2-hydroxypropan-2-yl)-4-methylquinolin-6-yl)pyrimidin-2-yl)amino)tetrahydro-2H-pyran-3-ol]	< 0.01 µM	≥ 1 µM	0.1 to 1 µM
O[C@@H]1COCC[C@H]1Nc1ncc(Cl)c(-c2cc(F)c3ncc4c(c3c2)CCNC4)n1 [Example 8, (3S,4R)-4-((5-chloro-4-(7-fluoro-1,2,3,4-tetrahydrobenzo[c][2,7]naphthyridin-9-yl)pyrimidin-2-yl)amino)tetrahydro-2H-pyran-3-ol]	< 0.01 µM	0.01 to 0.1 µM	< 0.01 µM
CC(C)n1c(C(C)(C)O)nc2c(F)cc(-c3cc(N[C@@H]4CCOC[C@H]4O)ncc3Cl)cc21 [Example 12, (3S,4R)-4-((5-chloro-4-(4-fluoro-2-(2-hydroxypropan-2-yl)-1-isopropyl-1H-benzo[d]imidazol-6-yl)pyridin-2-yl)amino)tetrahydro-2H-pyran-3-ol]	0.01 to 0.1 µM	≥ 1 µM	≥ 1 µM
CC(C)(N)c1cnc2c(F)cc(-c3nc(N[C@@H]4CCOC[C@H]4O)ncc3Cl)cc2c1 [Example 14, (3S,4R)-4-((4-(3-(2-aminopropan-2-yl)-8-fluoroquinolin-6-yl)-5-chloropyrimidin-2-yl)amino)tetrahydro-2H-pyran-3-ol]	< 0.01 µM	0.1 to 1 µM	0.01 to 0.1 µM
